Assay results taken from patent publication US11591288B2, “Compositions and methods for treating atherosclerotic cardiovascular disease” (GAVISH-GALILEE BIO APPLICATIONS LTD., priority 2017, dated 2023).

Tested on: HDL isolated from Balb/c mice
Experiment: Pro-/anti-inflammatory properties of HDL isolated from HFD fed Balb/c mice, cell free assay
Type: in vivo
Conditions: HDL from HFD mice given lyso-DGTS 1.43 mg/ml, 3.5 μl a day, 28 days; fluorescence without HDL = 1.0; p<0.05
Method: Balb/c mice fed with normal rodent diet (the “non” group; n=11) or HFD received treatment administered via subcutaneously implanted osmotic mini-pumps: 1) vehicle group injected with DDW+2% Tween 80 (n=9); 2) lyso-DGTS group injected with lyso-DGTS (1.43 mg/ml in DDW+2% Tween 80; n=1). At the end of the protocol, serum was obtained, HDL was isolated, and its pro-inflammatory/anti-inflammatory properties were determined using cell free assay (CFA). Fluorescence in the absence of HDL was normalized to 1.0. Values>1.0, after addition of the tested HDL, indicated pro-inflammatory activity; and values<1.0 indicated anti-inflammatory activity. (*p<0.05).
In order to examine the effect of lyso-DGTS on HDL-anti-inflammatory effects in-vivo, 3.5 μl lyso-DGTS a day were administered for 28 days, via a subcutaneously implanted osmotic mini-pump, to HFD fed mice. As described in Example 12, the mice were divided into three groups: 1) mice fed with regular diet for 12 weeks (the “non” group; […]); 2) mice fed with HFD for 12 weeks and injected with lyso-DGTS (1.43 mg/ml in DDW+2% Tween) from week 9 (the lyso-DGTS group; n=1); and 3) mice fed with HFD for 12 weeks and injected with DDW+2% Tween (the vehicle group; n=9).

Q: Which HDL inflammatory value does the source give for `CC/C=C\C/C=C\C/C=C\C/C=C\C/C=C\CCCC(=O)OCC(O)COCCC(C(=O)[O-])[N+](C)(C)C` (stereo not shown) [lyso-DGTS, lyso-diacylglyceryltrimethylhornmoserine] here?
A: Its HDL inflammatory value is under 1.
